Biological target: T1, His tagged recombinant human tissue transglutaminase (His6-rh-TG2) (Homo sapiens, UniProt P21980)
T1 construct: purchased Zedira T002
T1 sequence (P21980 1-687): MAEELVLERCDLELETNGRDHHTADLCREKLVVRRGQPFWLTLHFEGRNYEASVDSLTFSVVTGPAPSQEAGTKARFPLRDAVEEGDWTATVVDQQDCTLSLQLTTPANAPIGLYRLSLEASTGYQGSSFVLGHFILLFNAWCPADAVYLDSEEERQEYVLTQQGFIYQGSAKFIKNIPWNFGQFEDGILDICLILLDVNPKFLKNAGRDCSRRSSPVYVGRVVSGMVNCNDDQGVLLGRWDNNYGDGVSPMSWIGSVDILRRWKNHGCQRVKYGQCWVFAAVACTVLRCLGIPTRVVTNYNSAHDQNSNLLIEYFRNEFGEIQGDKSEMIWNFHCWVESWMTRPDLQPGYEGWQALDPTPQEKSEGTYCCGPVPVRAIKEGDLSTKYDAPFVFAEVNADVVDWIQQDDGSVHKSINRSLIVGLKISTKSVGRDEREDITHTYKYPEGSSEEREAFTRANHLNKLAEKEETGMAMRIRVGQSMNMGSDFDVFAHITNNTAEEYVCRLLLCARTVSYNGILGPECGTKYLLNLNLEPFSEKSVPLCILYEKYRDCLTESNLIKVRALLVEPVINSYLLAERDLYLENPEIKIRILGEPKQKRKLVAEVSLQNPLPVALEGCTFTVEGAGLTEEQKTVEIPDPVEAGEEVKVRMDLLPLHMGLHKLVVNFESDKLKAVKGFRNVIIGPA
Assay: Inactivation of human tissue transglutaminase, fluorescence assay with Abz-APE(CAD-DNP)QEA-OH
Format: biochemical
Conditions: substrate Abz-APE(CAD-DNP)QEA-OH, 37° C., pH=7.5
Experimental: General Method for Inactivation of Human Tissue Transglutaminase
250 μg lyophilized His tagged recombinant human tissue transglutaminase (His6-rh-TG2, Zedira product T002) are reconstituted by adding 150 μl water (resulting buffer 50 mM NaH2PO4, 150 mM NaCl, pH=8.0).
A 10 mM inhibitor stock solution in DMSO is prepared and is diluted with buffer (50 mM Tris-HCl, 10 mM CaCl2, 5 mM DTT, pH=7.5) each to the twentyfold of the concentration desired in the preparation (but at least 1/50 dilution resulting in a 2% DMSO concentration).
900 μl of an assay-solution consisting of 55.56 mM Tris, 11.11 mM CaCl2, 0.11% PEG8000, 5.56 mM DTT, 5.56 mM glycine methyl ester and 50 μM Abz-APE(CAD-DNP)QEA-OH, (Zedira product A102; patent No.: EP 1781807B1), pH=7.5 are added to a cuvette and heated in a measuring cell of a spectrophotometer to 37° C. 50 μl of the particular inhibitor solution are added to this solution (resulting in a concentration of less than 0.2% DMSO in the mixture).
7 μl of the transglutaminase solution reconstituted above are diluted with 51 μl buffer (50 mM Tris, 100 mM NaCl, 5 mM DTT, pH=7.5). 50 μl of this enzyme solution (10 μg His6-rhTG2) are added to the assay-solution containing the particular inhibitor concentration. It is incubated 5 min at 37° C. before measuring starts (λexc=313 nm and λem=418 nm, t=15 to 30 min).
The evaluation of the resulting enzyme activity is done using the slope of the straight line obtained by the increase in fluorescence.
To determine the non-inhibited enzyme activity, DMSO instead of inhibitor stock solution is used. IC50 values are determined by plotting the resulting enzyme activity against the logarithm of the inhibitor concentration. IC50 is defined as the concentration of inhibitor resulting in 50% of enzyme activity.

Compound	IC50 [µM]
CCOC(=O)/C=C/CC[C@H](NC(=O)CCC(=O)O)C(=O)Nc1cccn(CC(=O)N[C@@H](CC(C)(C)C)C(=O)OC)c1=O [A41, 4-((S,E)-7-Ethoxy-1-(1-(2-((S)-1-methoxy-4,4-dimethyl-1-oxopentan-2-ylamino)-2-oxoethyl)-2-oxo-1,2-dihydropyridin-3-ylamino)-1,7-dioxohept-5-en-2-ylamino)-4-oxobutanoic acid]	0.166
CCOC(=O)/C=C/CC[C@H](NC(=O)OCc1ccccc1)C(=O)Nc1ccc(C)n(CC(=O)NC(CC(=O)O)CC(C)C)c1=O (stereo partly drawn) [A5, 3-(2-(3-((S,E)-2-(Benzyloxycarbonylamino)-7-ethoxy-7-oxohept-5-enamido)-6-methyl-2-oxopyridin-1(2H)-yl)acetamido)-5-methylhexanoic acid]	0.13
CCC(CC)CNC(=O)Cn1cccc(NC(=O)[C@H](CC/C=C/C(=O)OC)NC(=O)CN)c1=O [A69, (S,E)-Methyl 6-(2-aminoacetamido)-7-(1-(2-(2-ethybutylamino)-2-oxoethyl)-2-oxo-1,2-dihydropyridin-3-ylamino)-7-oxohept-2-enoate 2,2,2-trifluoroacetate]	0.071
CCOC(=O)/C=C/CC[C@H](NC(=O)c1cc(C(F)(F)F)cc(C(F)(F)F)c1)C(=O)Nc1cccn(CC(=O)NCCC(C)C)c1=O [A17, (S,E)-Ethyl 6-(3,5-bis(trifluoromethyl)benzamido)-7-(1-(2-(isopentylamino)-2-oxoethyl)-2-oxo-1,2-dihydropyridin-3-ylamino)-7-oxohept-2-enoate]	0.063
CCOC(=O)/C=C/CC[C@H](NC(=O)c1ccc(N2CCN(C)CC2)cc1)C(=O)Nc1cccn(CC(=O)NCCC(C)C)c1=O [A20, (S,E)-Ethyl 7-(1-(2-(isopentylamino)-2-oxoethyl)-2-oxo-1,2-dihydropyridin-3-ylamino)-6-(4-(4-methylpiperazin-1-yl)benzamido)-7-oxohept-2-enoate]	0.202
CCOC(=O)/C=C/CC[C@H](NC(=O)c1ncsc1C)C(=O)Nc1cccn(CC(=O)NCCC(C)C)c1=O [A15, (S,E)-Ethyl 7-(1-(2-(isopentylamino)-2-oxoethyl)-2-oxo-1,2-dihydropyridin-3-ylamino)-6-(5-methylthiazole-4-carboxamido)-7-oxohept-2-enoate]	0.092
CCOC(=O)/C=C/CC[C@H](NC(=O)CCC(=O)O)C(=O)Nc1cccn(CC(=O)NCCC(C)(C)C)c1=O [A38, (S,E)-4-(1-(1-(2-(3,3-Dimethylbutylamino)-2-oxoethyl)-2-oxo-1,2-dihydropyridin-3-ylamino)-7-ethoxy-1,7-dioxohept-5-en-2-ylamino)-4-oxobutanoic acid]	0.175
CCOC(=O)/C=C/CC[C@H](NC(C)=O)C(=O)Nc1cccn(CC(=O)N[C@H](CC(C)C)C(=O)OC)c1=O [A33, (S,E)-Ethyl 6-acetamido-7-(1-(2-((R)-1-methoxy-4-methyl-1-oxopentan-2-ylamino)-2-oxoethyl)-2-oxo-1,2-dihydropyridin-3-ylamino)-7-oxohept-2-enoate]	0.493
CCOC(=O)/C=C/CC[C@H](NC(=O)c1ccsc1)C(=O)Nc1cccn(CC(=O)NCCC(C)C)c1=O [A12, (S,E)-Ethyl 7-(1-(2-(isopentylamino)-2-oxoethyl)-2-oxo-1,2-dihydropyridin-3-ylamino)-7-oxo-6-(thiophene-3-carboxamido)hept-2-enoate]	0.084
CCC(CC)CNC(=O)Cn1cccc(NC(=O)[C@H](CC/C=C/C(=O)OC)NC(=O)c2cccnc2)c1=O [A67, (S,E)-Methyl 7-(1-(2-(2-ethylbutylamino)-2-oxoethyl)-2-oxo-1,2-dihydropyridin-3-ylamino)-6-(nicotinamido)-7-oxohept-2-enoate]	0.055

Results, then the compound that gave them:

IC50 [µM]	Compound
0.166	CCOC(=O)/C=C/CC[C@H](NC(=O)CCC(=O)O)C(=O)Nc1cccn(CC(=O)NCC(C)CC)c1=O (stereo partly drawn) [A51, 4-((2S,E)-7-Ethoxy-1-(1-(2-(2-methylbutylamino)-2-oxoethyl)-2-oxo-1,2-dihydropyridin-3-ylamino)-1,7-dioxohept-5-en-2-ylamino)-4-oxobutanoic acid]
0.145	CCOC(=O)/C=C/CC[C@H](NC(=O)CCC(=O)O)C(=O)Nc1cccn(CC(=O)NCCC(CC)CC)c1=O [A43, (S,E)-4-(7-Ethoxy-1-(1-(2-(3-ethylpentylamino)-2-oxoethyl)-2-oxo-1,2-dihydropyridin-3-ylamino)-1,7-dioxohept-5-en-2-ylamino)-4-oxobutanoic acid]
5.4	CCOC(=O)/C=C/CC[C@H](NC(=O)CCC(=O)O)C(=O)Nc1cccn(CC(=O)NCCN(CC)CC)c1=O [A26, (S,E)-4-(1-(1-(2-(2-(Diethylamino)ethylamino)-2-oxoethyl)-2-oxo-1,2-dihydropyridin-3-ylamino)-7-ethoxy-1,7-dioxohept-5-en-2-ylamino)-4-oxobutanoic acid]
0.084	CCOC(=O)/C=C/CC[C@H](NC(C)=O)C(=O)Nc1cccn(CC(=O)N[C@H](C(=O)OC)C(C)C)c1=O [A57, (S,E)-Ethyl 6-acetamido-7-(1-(2-((S)-1-methoxy-3-methyl-1-oxobutan-2-ylamino)-2-oxoethyl)-2-oxo-1,2-dihydropyridin-3-ylamino)-7-oxohept-2-enoate]
0.124	CCOC(=O)/C=C/CC[C@H](NC(C)=O)C(=O)Nc1cccn(CC(=O)N[C@@H](CC(C)C)C(=O)OC)c1=O [A31, (S,E)-Ethyl 6-acetamido-7-(1-(2-((S)-1-methoxy-4-methyl-1-oxopentan-2-ylamino)-2-oxoethyl)-2-oxo-1,2-dihydropyridin-3-ylamino)-7-oxohept-2-enoate]
1.23	CCOC(=O)/C=C/CC[C@H](NC(=O)CCC(=O)O)C(=O)Nc1cccn(CC(=O)N2CCC(C(F)(F)F)CC2)c1=O [A45, (S,E)-4-(7-Ethoxy-1,7-dioxo-1-(2-oxo-1-(2-oxo-2-(4-(trifluoromethyl)piperidin-1-yl)ethyl)-1,2-dihydropyridin-3-ylamino)hept-5-en-2-ylamino)-4-oxobutanoic acid]
0.34	CCOC(=O)/C=C/CC[C@H](NC(=O)CCC(=O)O)C(=O)Nc1cccn(CC(=O)NCc2ccc(C(F)(F)F)cc2)c1=O [A37, (S,E)-4-(7-Ethoxy-1,7-dioxo-1-(2-oxo-1-(2-oxo-2-(4-(trifluoromethyl)benzylamino)ethyl)-1,2-dihydropyridin-3-ylamino)hept-5-en-2-ylamino)-4-oxobutanoic acid]
0.1	CCOC(=O)/C=C/CC[C@H](NC(=O)OCc1ccccc1)C(=O)Nc1cccn(CC(=O)NCCc2c(C)cc(C)cc2C)c1=O [A1, (S,E)-Ethyl 6-(benzyloxycarbonylamino)-7-oxo-7-(2-oxo-1-(2-oxo-2-(2,4,6-trimethylphenethylamino)ethyl)-1,2-dihydropyridin-3-ylamino)hept-2-enoate]
0.097	CCC(CC)CNC(=O)Cn1cccc(NC(=O)[C@H](CC/C=C/C(=O)OC)NC(=O)c2ccc3c(c2)C(=O)OC32c3ccc(N(C)C)cc3Oc3cc(N(C)C)ccc32)c1=O [A71, (S,E)-Methyl 6-(3′,6′-bis(dimethylamino)-3-oxo-3H-spiro[isobenzofuran-1,9′-xanthene]-5-ylcarboxamido)-7-(1-(2-(2-ethylbutylamino)-2-oxoethyl)-2-oxo-1,2-dihydropyridin-3-ylamino)-7-oxohept-2-enoate]
5.2	CCOC(=O)/C=C/CC[C@H](NC(C)=O)C(=O)Nc1cccn(CC(=O)NCCN(C)C)c1=O [A27, (S,E)-Ethyl 6-acetamido-7-(1-(2-(2-(dimethylamino)ethylamino)-2-oxoethyl)-2-oxo-1,2-dihydropyridin-3-ylamino)-7-oxohept-2-enoate]
